In general, EC50 refers to the concentration that produces a half-maximal response.

For assay [1], the target named is T1, hTAS1R2 + hTAS1R3 G804V^7.42 (Homo sapiens, UniProt Q7RTX0+Q8TE23, G804V).
T1 construct: expressed in transfected cells; host or cells: HEK293T cells stably expressing G16Gust44
T1 sequence (Q7RTX0 21-852 G804V): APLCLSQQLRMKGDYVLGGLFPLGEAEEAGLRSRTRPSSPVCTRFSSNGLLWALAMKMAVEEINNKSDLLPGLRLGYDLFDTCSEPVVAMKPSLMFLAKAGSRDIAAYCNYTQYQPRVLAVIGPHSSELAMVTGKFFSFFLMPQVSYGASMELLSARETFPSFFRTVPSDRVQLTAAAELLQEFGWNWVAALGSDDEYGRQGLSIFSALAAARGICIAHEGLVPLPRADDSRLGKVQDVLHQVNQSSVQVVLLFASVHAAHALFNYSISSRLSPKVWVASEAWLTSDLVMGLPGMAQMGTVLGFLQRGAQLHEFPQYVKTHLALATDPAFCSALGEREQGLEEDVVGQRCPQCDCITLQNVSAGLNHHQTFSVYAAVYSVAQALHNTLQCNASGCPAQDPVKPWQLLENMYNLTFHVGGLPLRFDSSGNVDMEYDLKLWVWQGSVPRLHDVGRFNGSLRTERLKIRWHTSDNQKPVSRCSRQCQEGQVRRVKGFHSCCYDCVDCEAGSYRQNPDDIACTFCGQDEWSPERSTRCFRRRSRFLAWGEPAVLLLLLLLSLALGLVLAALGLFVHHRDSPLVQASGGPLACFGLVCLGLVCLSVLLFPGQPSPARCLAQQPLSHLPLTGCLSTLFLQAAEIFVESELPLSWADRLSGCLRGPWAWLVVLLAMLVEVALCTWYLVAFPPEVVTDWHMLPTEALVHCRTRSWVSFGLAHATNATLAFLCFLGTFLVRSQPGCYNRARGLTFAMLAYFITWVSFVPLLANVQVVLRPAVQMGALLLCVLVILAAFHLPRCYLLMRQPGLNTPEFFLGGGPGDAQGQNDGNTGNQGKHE
T1 sequence (Q8TE23 20-839): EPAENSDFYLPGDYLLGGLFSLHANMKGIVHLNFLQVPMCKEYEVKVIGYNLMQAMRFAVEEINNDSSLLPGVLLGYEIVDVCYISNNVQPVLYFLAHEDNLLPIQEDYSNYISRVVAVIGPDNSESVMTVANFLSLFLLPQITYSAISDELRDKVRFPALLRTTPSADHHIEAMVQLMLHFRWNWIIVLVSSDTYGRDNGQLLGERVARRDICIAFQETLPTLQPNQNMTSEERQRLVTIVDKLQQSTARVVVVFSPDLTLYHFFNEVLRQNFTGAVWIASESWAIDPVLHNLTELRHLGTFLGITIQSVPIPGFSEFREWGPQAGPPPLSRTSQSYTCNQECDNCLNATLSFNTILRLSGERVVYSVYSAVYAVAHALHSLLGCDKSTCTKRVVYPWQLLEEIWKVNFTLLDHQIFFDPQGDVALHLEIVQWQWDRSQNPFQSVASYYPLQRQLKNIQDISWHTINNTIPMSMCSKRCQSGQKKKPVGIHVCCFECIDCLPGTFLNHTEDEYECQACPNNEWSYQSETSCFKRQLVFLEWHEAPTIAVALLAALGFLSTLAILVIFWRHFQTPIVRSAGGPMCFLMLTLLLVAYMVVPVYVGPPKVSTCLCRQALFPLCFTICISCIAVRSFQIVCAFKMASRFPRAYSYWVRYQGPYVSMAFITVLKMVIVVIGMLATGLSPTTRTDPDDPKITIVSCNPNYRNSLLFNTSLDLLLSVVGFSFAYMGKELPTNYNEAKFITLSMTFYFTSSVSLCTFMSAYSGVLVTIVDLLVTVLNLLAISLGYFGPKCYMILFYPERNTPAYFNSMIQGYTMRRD
The assay is described as follows: Calcium response (FLIPR), hTAS1R3 mutant coexpressed with hTAS1R2. In kind it is cell-based. The conditions noted are these: for EC50: n.r. = no response to NHDC up to highest tested concentration (6 mM), but responses to other sweeteners. The method, boiled down: (§1)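 Each mutant receptor pair was expressed transiently in G16Gust44-expressing HEK293T cells; stimuli dissolved in C1 solution triggered calcium responses, recorded by fluorometric imaging and scaled to baseline fluorescence (ΔF/F) after mock correction, from at least three experiments run in duplicate.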

Assay [2] concerns the target T2, hTAS1R2 + hTAS1R3 G804A^7.42 (Homo sapiens, UniProt Q7RTX0+Q8TE23, G804A).
T2 construct: expressed in transfected cells; host or cells: HEK293T cells stably expressing G16Gust44
T2 sequence (Q7RTX0 21-852 G804A): T1 sequence (Q7RTX0 21-852 G804V) with V784A
T2 sequence (Q8TE23 20-839): T1 sequence (Q8TE23 20-839)
The description is as above. As to conditions: variant G804A^7.42; for Emax: read-out: maximal signal (% of wt). Format: cell-based. Put shortly: as §1

Where a chain is given by its changes, count along the chain named. Where two headings read alike, the source gives them in different places. Where a SMILES comes first, the peptide text is derived from it.

As to `COc1ccc(CCC(=O)c2c(O)cc(O[C@@H]3O[C@H](CO)[C@@H](O)[C@H](O)[C@H]3O[C@@H]3O[C@@H](C)[C@H](O)[C@@H](O)[C@H]3O)cc2O)cc1O` [NHDC, neohesperidin dihydrochalcone], in assay [1] (mutant G804V^7.42, any tested concentration), the receptor response result is “did not respond to NHDC at any tested concentration”. Moreover, in assay [1] (variant G804V^7.42), the EC50 entry is on record as “n.r”. Besides, in assay [2], the EC50 came to 1300 ± 500 µM and the Emax was found to be 53 ± 10%.
`COC(=O)[C@H](Cc1ccccc1)NC(=O)[C@@H](N)CC(=O)O` [aspartame] (HELM PEPTIDE1{D.F.[CO[*:1]]}$$$$V2.0): the EC50 in assay [1] (variant G804V^7.42, read-out: EC50) was determined as 1300 ± 300 µM; in assay [2] it was 1600 ± 200 µM. Moreover, the Emax came out at 21 ± 2% in assay [1] (variant G804V^7.42, read-out: maximal signal (% of wt)) and 44 ± 1% in assay [2].

Values taken from article PMC2099433, “The binding site for neohesperidin dihydrochalcone at the human sweet taste receptor” (BMC Structural Biology, 2007).
